Laboratory results as given in paper PMC12442099 (ACS Infectious Diseases, 2025).
≈ marks a conversion by molar mass, not a printed value.

Experiments:
[1] = system: Rcs cell envelope stress response in Escherichia coli; assay: Rcs stress reporter assay, HTS format, dose-response curves; type: cell-based; details: for Emax: read-out: Max. effect (%); for EC50: read-out: pEC50 (converted)
Description: We adapted the reporter assay based on the Rcs stress system for HTS in a screening program at the ELF as the first bacterial phenotypic screen used in this setting. , The assay was performed in a 1536-well format using 25 μM PMBN as a reference (set at 100% effect).
The ELF screened their extensive and diverse library consisting of >500,000 small molecules at a concentration of 10 μM. The assay window (S/B) and Z’ values remained stable (2.0–15.2 and 0.50–0.90, respectively) throughout the screening campaign. The detailed standard screening procedure of the ELF is outlined elsewhere. An overview of the selection process of the screening campaign performed here is outlined in Figure . Initially, 340 compounds with an effect ≥20% of the reference compound PMBN were considered biologically active. Usually, up to 1% of the input library is selected for confirmatory, dose–response, orthogonal and deselection assays. Because the number of biological actives identified in this assay was well below the 1% limit, no orthogonal assays were performed. Instead, all compounds were reordered and tested as dilution series in the Rcs assay to generate dose–response curves (DRCs). Each compound’s pEC50 (−log of EC50, defined as the concentration (mol/L) at which 50% effect is achieved) was determined, and compounds with a pEC50 ≥ 4.7 were selected for further analysis. Next, the compounds were subjected to a mammalian cell-based cytotoxicity assay to exclude toxic compounds that may have a generic effect on membrane integrity. Compounds that reduced mammalian cell viability by 50% were considered cytotoxic. The qualified hit list (QHL) was then generated following triaging based on LC-MS analysis and pEC50 values.
Overnight cultures (ONCs) were prepared by inoculating 5 mL medium from glycerol stocks and incubating the culture for 16–18 h. ONCs were then diluted to an OD600 of 0.05 and grown until an OD600 of 0.3–0.4 was reached.
Assay robustness was confirmed by testing its sensitivity to assay-interfering agents, including colored, aggregating and fluorescent compounds. […] For HTS, bacteria were diluted 50x in prewarmed medium. Fifteen nL of assay compounds (10 μM), DMSO (0.25%), or the reference compound polymyxin B nonapeptide (PMBN) at 25 μM were added to 1536 well plates. Next, 6 μL culture aliquots were added to assay plates containing compounds. Plates were briefly centrifuged for 1 min at 150 x g. Plates were incubated at 37 °C with high humidity and fluorescence (Ex./Em. λ: 485/528 nm) was measured at T = 0 and T = 150 min using a ClarioStar plate reader (BMG Labtech). For data analysis, T = 0 values were subtracted from T = 150 values to calculate Z-score and % effect compared to the reference compound.
Dose–response curves of the 340 initial active compounds were determined following the preparation of serial dilutions (20 nM–20 μM; 7 points, √10). The % effect compared to the reference compound PMBN was calculated and plotted for each compound dilution. The resulting plots were used to calculate pEC50 (-log(EC50), with EC50 being determined as the concentration at which a 50% effect is observed).

A. baumanni 9955 = assay: MIC broth microdilution; type: cell-based; details: Acinetobacter baumannii, clinical isolate, CAMHB, median of triplicates, read-out: MIC (μg/mL) A. baumanni 9955
Description: (§1) The antibacterial activity of the compounds was determined by measuring their minimum inhibitory concentration (MIC) values using the broth microdilution method according to the Clinical and Laboratory Standards Institute guidelines (CLSI). Briefly, a single colony from blood agar plates was inoculated into cation-adjusted Mueller-Hinton broth (CAMHB) and grown to OD600 = 0.5. Next, 10^6 CFU/mL were added to a 2-fold serial dilution series of test compounds and incubated at 37 °C, 600 rpm overnight (18–20 h for Gram-negative strains, 20–24 h for Gram-positive strains), after which the plates were visually inspected for bacterial growth. MICs are reported as the median of triplicates.

E. coli 25922 = assay: MIC broth microdilution; type: cell-based; details: Escherichia coli, CAMHB, median of triplicates, read-out: MIC (μg/mL) E. coli 25922
Description: as §1

E. coli BW25113 = assay: MIC broth microdilution; type: cell-based; details: Escherichia coli, CAMHB, median of triplicates, read-out: MIC (μg/mL) E. coli BW25113
Description: as §1

E. coli TOP10F’ = assay: MIC broth microdilution; type: cell-based; details: Escherichia coli; screening strain; CAMHB, median of triplicates; read-out: MIC (μg/mL) E. coli TOP10F’
Description: as §1

K. pneumoniae 13883 = assay: MIC broth microdilution; type: cell-based; details: Klebsiella pneumoniae, clinical isolate, CAMHB, median of triplicates, read-out: MIC (μg/mL) K. pneumoniae 13883
Description: as §1

P. aeruginosa 27853 = assay: MIC broth microdilution; type: cell-based; details: Pseudomonas aeruginosa, clinical isolate, CAMHB, median of triplicates, read-out: MIC (μg/mL) P. aeruginosa 27853
Description: as §1

S. aureus USA 300 = assay: MIC broth microdilution; type: cell-based; details: Staphylococcus aureus, USA300; clinical isolate; CAMHB, median of triplicates; read-out: MIC (μg/mL) S. aureus USA 300
Description: as §1

E. coli TOP10F' = assay: Growth inhibition after 7 hours (EC80/EC50); details: Escherichia coli, 7 h; for EC50: read-out: EC50 TOP10F'; for IC80: read-out: EC80 TOP10F'
E. coli MC4100 = assay: Growth inhibition after 7 hours (EC80/EC50); details: Escherichia coli, MC4100, 7 h; for EC50: read-out: EC50 MC4100; for IC80: read-out: EC80 MC4100
[2] = system: Rcs stress response in E. coli TOP10F’; assay: Rcs stress kinetics reporter assay; type: cell-based
Description: Stress was measured in real-time during 10 h following compound treatment by normalizing the fluorescence intensity for growth as indicated by the optical density at 600 nm (OD600) of the culture.
3 Bacterial stress responses of different compound classes as shown in panel (A). (B) Rcs, (C) σE, (D) Cpx, and (E) heat shock. Graphs show fold change in fluorescence normalized for OD600 at EC80 compound concentrations over the course of 10h. Fold change values were determined by comparing OD600‑normalized fluorescence of compound-treated samples to DMSO treated samples. PMBN is used as a CE stress-inducing control at 25 μg/mL, which is the concentration used as a control during the screening campaign. Chloramphenicol at 1 μg/mL is used as a non-stress-inducing antibiotic control. Error bars indicate standard deviation of the average of triplicate samples from at least two independent experiments. (F) Overview of the different stress responses based on the compound class.
(§2) For lower throughput analysis under laboratory conditions, cultures grown to OD600 of 0.3–0.4 were diluted to a final concnetration of 0.05 OD600 units/mL in black, clear-bottom 96-well plates (Greiner Bio-One B.V.). Plates were incubated in a Biotek HTX or H1 plate reader (Agilent Technologies) at 37 °C with continuous shaking. Kinetic studies were performed by measuring OD600 and fluorescence (Ex./Em. Λ: 485/528 nm) every 20 min for 10h. For end point measurements, fluorescence was measured at T = 0 and once more at T = 150 min.

[3] = system: SOS stress response in E. coli MC4100; assay: SOS stress reporter assay (PlexA-mNG); type: cell-based; details: EC80 compound concentrations (Fig. 5A); Fig. S4
From the text: To examine the potential link between DNA gyrase inhibition, SOS stress, and CE stress, we designed a fluorescent SOS reporter plasmid, similar to the reporter plasmids used to study CE stresses.
5 (A) SOS stress induced by different compounds at EC80 concentrations in E. coli MC4100. (B) Rcs stress of different compounds at EC80 concentrations in E. coli MC4100. (C) Rcs stress of the nonquinolone gyrase inhibitor LEI-800 in TOP10F’. (D) Rcs stress induced by mitomycin C in E. coli TOP10F’ and E. coli MC4100. Graphs show fold change in fluorescence adjusted for bacterial growth (OD600). Error bars indicate standard deviation of triplicates. Data are representative of two independent experiments with similar results.

[4] = system: Rcs stress response in E. coli MC4100 (WT, FQR, GEPR); assay: Rcs stress reporter assay in MC4100 wildtype and resistant mutants; type: cell-based; details: EC80 concentrations
From the text: Serial passaging of E. coli MC4100 in the presence of increasing concentrations of lomefloxacin or gepotidacin yielded resistant variants of E. coli MC4100. We used MC4100 to raise resistance, because unlike the screening strain TOP10F’, this strain has a functional SOS stress response, which has been implicated in developing resistance against quinolones. Compounds also elicited a robust Rcs stress response in E. coli MC4100, allowing for this strain to be used for stress assays.
4 Rcs stress induced by EC80 concentrations of (A) lomefloxacin, (B) gepotidacin, (C) A2, and (D) B1 in wildtype (WT), fluoroquinolone resistant (FQR) or gepotidacin resistant (GEPR) bacteria. Graphs show the fold change in fluorescence adjusted for bacterial growth as determined by OD600. Error bars indicate the standard deviation of triplicate samples. Data are representative of three independent experiments with similar results. […]
as §2

SMILES | Emax [1] [%] | EC50 [1] [nM] | MIC (A. baumanni 9955) [µg/mL] | MIC (E. coli 25922) [µg/mL] | MIC (E. coli BW25113) [µg/mL] | MIC (E. coli TOP10F’) [µg/mL] | MIC (K. pneumoniae 13883) [µg/mL] | MIC (P. aeruginosa 27853) [µg/mL] | MIC (S. aureus USA 300) [µg/mL] | EC50 (E. coli TOP10F') [µg/mL] | IC80 (E. coli TOP10F') [µg/mL] | EC50 (E. coli MC4100) [µg/mL] | IC80 (E. coli MC4100) [µg/mL] | Rcs stress induction in SOS-deficient TOP10F’ ([2]; fold change fluorescence/OD600) | SOS stress induction in MC4100 [3] | Rcs stress induction in MC4100 wildtype [4] | induction of stress response systems (Rcs, σE, Cpx, heat shock) ([2]; chloramphenicol 1 μg/mL, negative control)
CNn1cc(C(=O)O)c(=O)c2cc(F)c(N3CCN(C(C)C)CC3)cc21 [A4] | 20.8 | 214 | 2 (≈ 5.52 µM) | 0.25 (≈ 0.69 µM) | 0.25 (≈ 0.69 µM) | 0.125 (≈ 0.345 µM) | 0.5 (≈ 1.38 µM) | 16 (≈ 44.1 µM) | 64 (≈ 177 µM) | 2 (≈ 5.52 µM) | 4 (≈ 11 µM) | 0.25 (≈ 0.69 µM) | 1 (≈ 2.76 µM) | – | – | – | –
O=S(=O)(NC[C@@H]1CC[C@H](c2ccc(-c3cccnc3)cc2)N1)c1cccc2cnccc12 [LEI-800, reference compound] | – | – | – | – | – | – | – | – | – | 1 (≈ 2.25 µM) | 8 (≈ 18 µM) | 2 (≈ 4.5 µM) | 8 (≈ 18 µM) | induced high levels of Rcs stress similar to CluB compounds | did not induce strong fluorescence | Neither compound induced Rcs stress | –
CCc1cc(-c2c(F)cc3c(=O)c(C(=O)O)cn4c3c2OC[C@@H]4C)cc(C)n1 [A3] | 18.6 | 191 | 0.5 (≈ 1.31 µM) | 0.125 (≈ 0.327 µM) | 0.125 (≈ 0.327 µM) | < 0.03 | 1 (≈ 2.62 µM) | 8 (≈ 20.9 µM) | 0.5 (≈ 1.31 µM) | 0.0078 (≈ 0.0204 µM) | 0.031 (≈ 0.0811 µM) | 0.25 (≈ 0.654 µM) | 1 (≈ 2.62 µM) | – | – | – | –
Cc1cc(-c2c(F)cc3c(=O)c(C(=O)O)cn(CCF)c3c2F)cc(C)n1 [A1] | 26.1 | 955 | 1 (≈ 2.66 µM) | 0.5 (≈ 1.33 µM) | 0.25 (≈ 0.664 µM) | < 0.03 | 1 (≈ 2.66 µM) | 16 (≈ 42.5 µM) | 1 (≈ 2.66 µM) | 0.016 (≈ 0.0425 µM) | 0.063 (≈ 0.167 µM) | 0.5 (≈ 1.33 µM) | 2 (≈ 5.31 µM) | – | – | – | –
Cc1ncc(CNC2CCN(CCn3c(=O)ccc4ncc(OCc5ccnn5C)cc43)CC2)cc1Cl [B3] | 37.9 | 5620 | 8 (≈ 15.3 µM) | 16 (≈ 30.6 µM) | 16 (≈ 30.6 µM) | 2 (≈ 3.83 µM) | 64 (≈ 123 µM) | > 64 | 0.125 (≈ 0.239 µM) | 0.016 (≈ 0.0306 µM) | 1 (≈ 1.92 µM) | 2 (≈ 3.83 µM) | > 16 | – | – | – | –
O=C(N[C@H](CO)[C@H](O)c1ccc([N+](=O)[O-])cc1)C(Cl)Cl [Chloramphenicol] | – | – | – | – | – | – | – | – | – | – | – | – | – | – | – | – | did not induce any of the stress response systems tested
CN(C)c1ccc(-c2nc(Cl)nc3cccnc23)cc1 [S2] | 87.9 | 7760 | – | – | – | – | – | – | – | – | – | – | – | – | – | – | –
COC1CN(CCn2c(=O)ccc3ncc(F)cc32)CCC1NCc1cc(F)c2c(c1)NC(=O)CO2 (stereo not drawn) [B2] | 53.2 | 631 | 1 (≈ 2 µM) | 2 (≈ 4 µM) | 1 (≈ 2 µM) | 0.06 (≈ 0.12 µM) | 4 (≈ 8.01 µM) | 8 (≈ 16 µM) | 0.25 (≈ 0.5 µM) | < 0.063 | 2 (≈ 4 µM) | 2 (≈ 4 µM) | 16 (≈ 32 µM) | – | – | – | –
